Reference: patent EP1000062B1, “TRICYCLIC VASOPRESSIN AGONISTS” (Wyeth, priority 1997, dated 1999)

System: Vasopressin V2
Experiment: Vasopressin V2 agonist effects of test compounds in normal conscious water-loaded rats
Assay type: in vivo
Settings: Sprague-Dawley (CD) rats, oral 10 mg/kg, urine collected for four hours; for Osmolality (% Increase): change in osmolality as percent of control; for Urine Volume (% decrease): vs. control
Description: Vasopressin V2 Agonist Effects of Test Compounds in Normal Conscious Water-Loaded Rats:
On the day of test, rats were placed individually into metabolic cages equipped with devices to separate the feces from the urine and containers for collection of urine. Test compound or reference agent was given at an oral dose of 10 mg/kg in a volume of 10 ml /kg. […] Thirty minutes after dosing the test compound, rats were gavaged with water at 30 ml /kg into the stomach using a feeding needle. During the test, rats were not provided with water or food. Urine was collected for four hours after dosing of the test compound. At the end of four hours, urine volume was measured. […] Determinations of Na^+, K^+ and Cl^- ion were carried out using ion specific electrodes in a Beckman SYNCHRON EL-ISE Electrolyte System analyzer. […] In the screening test, two rats were used for each compound. If the difference in the urine volume of the two rats was greater than 50%, a third rat was used.

Row | Compound | Osmolality (% Increase) [%] | Urine Volume (% decrease) [%]
1 | Cc1cnn(-c2ncc(C(=O)N3Cc4cccn4Cc4ccccc43)c(C(F)(F)F)n2)c1 [Example 21, [2-(4-Methyl-pyrazol-1-yl)-4-trifluoromethyl-pyrimidin-5-yl]-(5H,11H-pyrrolo[2,1-c][1,4]benzodiazepin-10-yl)-methanone] | 181 | 49
2 | CC(=O)c1ccc(C(=O)N2Cc3cccn3Cc3ccccc32)cc1 [Example 22, 1-[4-(5H,11H-Pyrrolo[2,1-c][1,4]benzodiazepine-10-carbonyl)-phenyl]-ethanone] | 322 | 80
3 | O=C(c1ccc(-c2cc[nH]n2)cc1)N1Cc2cccn2Cc2ccccc21 [Example 24, [4-(1H-Pyrazol-3-yl)-phenyl]-(5H,11H-pyrrolo[2,1-c][1,4]benzodiazepin-10-yl)-methanone] | 159 | 47
4 | Cn1ccc(-c2ccc(C(=O)N3Cc4cccn4Cc4ccccc43)cc2)n1 [Example 25, [4-(1-Methyl-1H-pyrazolyl-3-yl)-phenyl]-(5H,11H-pyrrolo[2,1-c][1,4]-benzodiazepin-10-yl)-methanone] | 979 | 87
5 | CCn1ccc(-c2ccc(C(=O)N3Cc4cccn4Cc4ccccc43)cc2)n1 [Example 26, [4-(1-Ethyl-1H-pyrazol-3-yl)-phenyl]-(5H,11H-pyrrolo[2,1-c][1,4]-benzodiazepin-10-yl)-methanone] | 279 | 54
6 | CCCn1ccc(-c2ccc(C(=O)N3Cc4cccn4Cc4ccccc43)cc2)n1 [Example 27, [4-(1-Propyl-1H-pyrazol-3-yl)-phenyl]-(5H,11H-pyrrolo[2,1-c][1,4]-benzodiazepin-10-yl)-methanone] | 183 | 76
7 | CCCCn1ccc(-c2ccc(C(=O)N3Cc4cccn4Cc4ccccc43)cc2)n1 [Example 28, [4-(1-Butyl-1H-pyrazol-3-yl)-phenyl]-(5H,11H-pyrrolo[2,1-c][1,4]-benzodiazepin-10-yl)-methanone] | 37 | 75
8 | COCn1ccc(-c2ccc(C(=O)N3Cc4cccn4Cc4ccccc43)cc2)n1 [Example 29, [4-(1-methoxymethyl-1H-pyrazol-3-yl)-phenyl]-(5H,11H-pyrrolo[2,1-c][1,4]-benzodiazepin-10-yl)-methanone] | 305 | 66
9 | CCC(=O)n1ccc(-c2ccc(C(=O)N3Cc4cccn4Cc4ccccc43)cc2)n1 [Example 31, 1-{3-[4-(5H,11H-Pyrrolo[2,1-c][1,4]benzodiazepine-10-carbonyl)-phenyl]-pyrazol-1-yl}-propan-1-one] | 298 | 72
10 | O=C(c1ccc(-c2ccn(C(=O)C3CC3)n2)cc1)N1Cc2cccn2Cc2ccccc21 [Example 32, [4-(1-Cyclopropanecarbonyl-1H-pyrazol-3-yl)-phenyl]-(5H,11H-pyrrolo[2,1-c][1,4]benzodiazepin-10-yl)-methanone] | 373 | 77
11 | CCCC(=O)n1ccc(-c2ccc(C(=O)N3Cc4cccn4Cc4ccccc43)cc2)n1 [Example 33, 1-{3-[4-(5H,11H-Pyrrolo[2,1-c][1,4]benzodiazepine-10-carbonyl)-phenyl]-pyrazol-1-yl}-butan-1-one] | 362 | 68
12 | Cc1ccc(F)cc1C(=O)n1ccc(-c2ccc(C(=O)N3Cc4cccn4Cc4ccccc43)cc2)n1 [Example 35, {4-[1-(5-Fluoro-2-methyl-benzoyl)-1H-pyrazol-3-yl]-phenyl}-(5H,11H-pyrrolo[2,1-c][1,4]benzodiazepin-10-yl)-methanone] | 308 | 63
13 | O=C(c1ccc(-c2ccn(C(=O)c3ccc(F)cc3Cl)n2)cc1)N1Cc2cccn2Cc2ccccc21 [Example 37, {4-[1-(2-Chloro-4-fluoro-benzoyl)-1H-pyrazol-3-yl]-phenyl}-(5H,11H-pyrrolo[2,1-c][1,4]benzodiazepin-10-yl]methanone] | 370 | 71
14 | O=C(c1ccc(-c2ccn(C(=O)Cc3ccc(Cl)cc3Cl)n2)cc1)N1Cc2cccn2Cc2ccccc21 [Example 39, 2-(2,4-Dichloro-phenyl)-1-{3-[4-(5H,11H-pyrrolo[2,1-c][1,4]benzodiazepine-10-carbonyl)-phenyl]-pyrazol-1-yl}-ethanone] | 253 | 69
15 | O=C(c1ccc(-c2ccn(C(=O)c3ccccc3-c3ccccc3)n2)cc1)N1Cc2cccn2Cc2ccccc21 [Example 40, {4-[1-(Biphenyl-2-carbonyl)-1H-pyrazol-3-yl]-phenyl}-(5H,11H-pyrrolo[2,1-c][1,4]benzodiazepin-10-yl)-methanone] | 183 | 46
16 | O=C(c1ccc(-c2ccn(C(=O)c3ccccc3-c3ccc(C(F)(F)F)cc3)n2)cc1)N1Cc2cccn2Cc2ccccc21 [Example 41, {4-[1-(4'-Trifluoromethyl-biphenyl-2-carbonyl)-1H-pyrazol-3-yl]-phenyl}-(5H,11H-pyrrolo[2,1-c][1,4]benzodiazepin-10-yl)-methanone] | 240 | 69
17 | Cc1n[nH]c(-c2ccc(C(=O)N3Cc4cccn4Cc4ccccc43)cc2)n1 [Example 50, [4-(5-Methyl-2H-[1,2,4]triazol-3-yl)-phenyl]-(5H,11H-pyrrolo[2,1-c][1,4]-benzodiazepin-10-yl)-methanone] | 223 | 53
18 | Cc1nc(-c2ccc(C(=O)N3Cc4cccn4Cc4ccccc43)cc2)n(C)n1 [Example 51, [4-(2,5-Dimethyl-2H-[1,2,4]triazol-3-yl)-phenyl]-(5H,11H-pyrrolo[2,1-c]-[1,4]benzodiazepin-10-yl)-methanone] |  | 72
19 | Cc1noc(-c2ccc(C(=O)N3Cc4cccn4Cc4ccccc43)cc2)n1 [Example 52, [4-(3-Methyl[1,2,4]oxadiazol-5-yl)-phenyl]-(5H,11H-pyrrolo-[2,1-c][1,4]-benzodiazepin-10-yl)-methanone] | 261 | 66
20 | Cn1cc(-c2ccc(C(=O)N3Cc4cccn4Cc4ccccc43)cc2)cn1 [Example 55, [4-(1-Methyl-1H-pyrazol-4-yl)-phenyl]-(5H,11H-pyrrolo[2,1-c][1,4]-benzodiazepin-10-yl)-methanone] | 164 | 80
21 | Cn1cc(-c2ccc(C(=O)N3Cc4cccn4Cc4ccccc43)cn2)cn1 [Example 57, [6-(1-Methyl-1H-pyrazol-4-yl)-pyridin-3-yl]-(5H,11H-pyrrolo[2,1-c][1,4]-benzodiazepin-10-yl)-methanone] | 288 | 77
22 | O=C(c1ccc(-n2cccn2)cc1)N1Cc2cccn2Cc2ccccc21 [Example 58, [4-(Pyrazol-1-yl)-phenyl]-(5H,11H-pyrrolo[2,1-c][1,4]benzodiazepin-10-yl)-methanone] | 324 | 49
23 | Cc1ccn(-c2ccc(C(=O)N3Cc4cccn4Cc4ccccc43)cc2)n1 [Example 59, [4-(3-Methyl-pyrazol-1-yl)-phenyl]-(5H,11H-pyrrolo[2,1-c][1,4]-benzodiazepin-10-yl)-methanone] | 607 | 80
24 | Cc1cnn(-c2ccc(C(=O)N3Cc4cccn4Cc4ccccc43)cc2)c1 [Example 60, [4-(4-Methyl-pyrazol-1-yl)-phenyl]-(5H,11H-pyrrolo[2,1-c][1,4]-benzodiazepin-10-yl)-methanone] | 165 | 54
25 | Cc1cc(C)n(-c2ccc(C(=O)N3Cc4cccn4Cc4ccccc43)cc2)n1 [Example 61, [4-(3,5-Dimethyl-pyrazol-1-yl)-phenyl]-(5H,11H-pyrrolo[2,1-c][1,4]-benzodiazepin-10-yl)-methanone] | 245 | 59
26 | O=C(c1ccc(-n2ccc(C(F)(F)F)n2)cc1)N1Cc2cccn2Cc2ccccc21 [Example 62, (5H,11H-Pyrrolo[2,1-c][1,4]benzodiazepin-10-yl)-[4-(3-trifluoromethyl-pyrazol-1-yl)-phenyl]-methanone] | 150 | 22
27 | O=C(c1ccc(-n2ccnc2)cc1)N1Cc2cccn2Cc2ccccc21 [Example 63, [4-(Imidazol-1-yl)-phenyl]-(5H,11H-pyrrolo[2,1-c][1,4]benzodiazepin-10-yl)-methanone] | 214 | 27
28 | Cc1cn(-c2ccc(C(=O)N3Cc4cccn4Cc4ccccc43)cc2)cn1 [Example 64, [4-(4-Methyl-imidazol-1-yl)-phenyl]-(5H,11H-pyrrolo[2,1-c][1,4]-benzodiazepin-10-yl)-methanone] | 349 | 79
29 | Cn1ccc(-c2ccc(C(=O)N3Cc4cccn4Cc4ccccc43)c(Cl)c2)n1 [Example 71, [2-Chloro-4-(1-methyl-1H-pyrazol-3-yl)-phenyl]-(5H,11H-pyrrolo[2,1-c]-[1,4]benzodiazepine-10-yl)-methanone] | 264 | 84
30 | N#Cc1ccc(C(=O)N2Cc3cccn3Cc3ccccc32)c(Cl)c1 [Example 77, 3-Chloro-4-(5H,11H-pyrrolo[2,1-c][1,4]benzodiazepine-10-carbonyl)-benzonitrile] | 90 | 13
